From patent US7820690B2, “Method of treating or inhibiting a non-digestive tract derived abdominal disorder associated with pain using a 5-HT, receptor antagonist” (Solvay Pharmaceuticals GmbH, priority 2004, dated 2010) come the findings set out here.

This experiment deals with rats with cyclophosphamide-induced cystitis. Briefly: cystometry in rats with cyclophosphamide-induced cystitis. The following applies: for inhibition at 0.01 mg/kg / inhibition at 0.1 mg/kg: Rattus norvegicus, iv; for inhibition at 0.01 mg/kg: group 4, cilansetron 0.01 mg/kg i.v.; for inhibition at 0.1 mg/kg: group 5, cilansetron 0.1 mg/kg i.v. Type of experiment: in vivo, male Wistar rats. As to the method:
In this test model, the effect of 5-HT3 receptor antagonists on rats with cyclophosphamide-induced cystitis was investigated.
Inflammation of the bladder responsible for bladder overactivity was induced by an intraperitoneal (i.p.) cyclophosphamide injection (150 mg/kg, i.p.) 48 hours before testing (Maggi et al., J Auton Nerv Syst 38 (1992) 201) using male Wistar rats weighing 300-350 g. The rats were anesthetized with urethane delivered subcutaneously in saline (1.2 g/kg), and their temperature was maintained at 37° C. Following a midline abdominal incision, a catheter was inserted through the bladder dome and sealed with a tie. The catheter was connected via a T-tube to a pressure transducer and a syringe pump, to allow filling of the bladder with warm (37° C.) saline at 50 μl/min simultaneously with recording of intravesical pressure. This catheter was later used for cystometry.
For each voiding and non-voiding contraction, the threshold pressure (ThP, corresponding to the bladder pressure at the onset of the voiding contraction (mm Hg)), the maximal voiding pressure (MP, defined by the maximal bladder pressure reached during voiding contraction (mm Hg)) the basal pressure (BaP, defined by the lowest bladder pressure reached after the voiding contraction (mm Hg)) and the area under the curve of the bladder pressure (AUP) during voiding (mm Hg×s) was calculated for each rat and averaged for each condition. In addition, the frequency of contractions was determined.
Test groups consisting of 10 rats each were used. Drug treatments were carried out as described in the following Table 1.
In groups 2 through 5, cystitis was induced by administration of cyclophosphamide 150 mg/kg intraperitoneally (i.p.) 48 hours before the experiment. Group 1 served as a control group. Drugs or vehicle to be tested were injected 10 minutes before the beginning of cystometry. Besides […] doses of cilansetron (groups 4-5), HOE140 (D-Arginyl-[Hyp3, Thi5, D-Tic7, Oic8]-bradykinin), a bradykinin 2 receptor antagonist, was used as a reference standard known to be active in this model. During the cystometry the pressure changes due to transvesical perfusion of warm saline at 50 μl/min were recorded over 60 minutes. Parameters (as outlined above) were analyzed for each bladder filling.

Where [1] appears, read: HOE140 130 μg/kg i.v., effect of treatment in cystitis rats.
The mark [2] stands for this setting: group 3, cyclophosphamide cystitis + HOE140 130 μg/kg i.v.
[3] abbreviates: read-out: % inhibition of cystitis effects, basal pressure.
[4] abbreviates: read-out: % inhibition of cystitis effects, frequency.
The mark [5] stands for this setting: read-out: % inhibition of cystitis effects, threshold pressure.
Where [6] appears, read: group 4, cyclophosphamide cystitis + cilansetron 0.01 mg/kg i.v.
Where [7] appears, read: group 5, cyclophosphamide cystitis + cilansetron 0.1 mg/kg i.v.

Where two headings read alike, the source gives them in different places.

On to “D-Arginyl-[Hyp3, Thi5, D-Tic7, Oic8]-bradykinin [HOE140]”, for which, under setting [1], the “area under the curve of the bladder contractions” value is reported as “not affected”, the first micturition volume result is listed as “not affected” and the micturition pressure entry was “not affected”. For the same compound, the “symptoms of bladder overactivity associated with cyclophosphamide pretreatment” value (acute treatment, HOE140 130 μg/kg) is reported as “reduced the symptoms of bladder overactivity”. Also, where the note is “group 3, HOE140 130 μg/kg i.v.”, the “% inhibition of cystitis effects, basal pressure” value was determined as 50%; the “% inhibition of cystitis effects, frequency” value was 25%; the “% inhibition of cystitis effects, threshold pressure” value was determined as 60%. Under setting [2], the “frequency of bladder contractions” value came out at 30 h⁻¹ and the threshold pressure worked out at 17 mmHg. Further, the basal pressure (group 3, cyclophosphamide cystitis + HOE140 130 μg/kg i.v., 10 minutes before cystometry) was determined as 16 mmHg.
Take `Cc1nccn1C[C@H]1CCc2c(c3cccc4c3n2CCC4)C1=O` [cilansetron, (R)-(−)-4,5,6,8,9,10-hexahydro-10-[(2-methyl-1H-imidazol-1-yl)methyl]-11H-pyrido-[3,2,1-jk]-carbazol-11-one]: under setting [3], the inhibition at 0.01 mg/kg was found to be 50% and the inhibition at 0.1 mg/kg was determined as 83%. Also, under setting [4], the inhibition at 0.01 mg/kg was found to be 45% and the inhibition at 0.1 mg/kg was 35%. Further, under setting [5], the inhibition at 0.01 mg/kg was 60% and the inhibition at 0.1 mg/kg was found to be 100%. For the same compound, the “effectiveness compared with reference compound HOE 140” value (cilansetron 0.01 mg/kg i.v.) is given as “similarly effective to, or even more effective than”. Further, the “symptoms of bladder overactivity associated with cyclophosphamide pretreatment” value (cilansetron 0.01 and 0.1 mg/kg, compared with HOE140) is “reduced these symptoms to an equivalent or slightly greater extent”. Also, the “beneficial effect compared with HOE140” value (cystometry in rats with cyclophosphamide-induced cystitis, overall conclusion) is on record as “superior”. Also, under setting [6], the basal pressure amounted to 16 mmHg, the “frequency of bladder contractions” value was 26 h⁻¹ and the threshold pressure came out at 17 mmHg. For the same compound, under setting [7], the basal pressure is given as 14 mmHg, the “frequency of bladder contractions” value was 28 h⁻¹ and the threshold pressure came to 15 mmHg.

Usually inhibition stands for the relative decrease from the control value, in per cent.
